ChEMBL document CHEMBL1201861, “Genomics of Drug Sensitity in Cancer screening data, Wellcome Trust Sanger Institute”

system: DOHH-2; experiment: cells; format: functional, cell-based, Homo sapiens; settings: Homo sapiens, DOHH-2;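 note: growth inhibition of human DOHH-2 cells, read out with a cell viability assay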
Description: SANGER: Inhibition of human DOHH-2 cell growth in a cell viability assay.

Structure (SMILES)	IC50 [nM]
CN(NC(=O)CC(=O)NN(C)C(=S)c1ccccc1)C(=S)c1ccccc1 [ELESCLOMOL]	> 200

system: DU-4475; experiment: cells; format: functional, cell-based, Homo sapiens; settings: Homo sapiens, DU-4475
Description: SANGER: Inhibition of human DU-4475 cell growth in a cell viability assay.

Structure (SMILES)	IC50 [nM]
CN(NC(=O)CC(=O)NN(C)C(=S)c1ccccc1)C(=S)c1ccccc1 [ELESCLOMOL]	112

system: DoTc2-4510; experiment: cells; format: functional, cell-based; settings: Homo sapiens

Structure (SMILES)	IC50 [nM]
CN(NC(=O)CC(=O)NN(C)C(=S)c1ccccc1)C(=S)c1ccccc1 [ELESCLOMOL]	> 200

system: ES4; experiment: cells; format: functional, cell-based, Homo sapiens; settings: Homo sapiens, ES4;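 note: growth inhibition of human ES4 cells, read out by a cell viability assay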
Description: SANGER: Inhibition of human ES4 cell growth in a cell viability assay.

Structure (SMILES)	IC50 [nM]
CN(NC(=O)CC(=O)NN(C)C(=S)c1ccccc1)C(=S)c1ccccc1 [ELESCLOMOL]	4.39

system: HCE-T; experiment: cells; format: functional, cell-based, Homo sapiens; settings: Homo sapiens, HCE-T;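 note: cell viability assay read-out, reporting inhibition of HCE-T cell growth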
Description: SANGER: Inhibition of human HCE-T cell growth in a cell viability assay.

Structure (SMILES)	IC50 [nM]
CN(NC(=O)CC(=O)NN(C)C(=S)c1ccccc1)C(=S)c1ccccc1 [ELESCLOMOL]	4.45

system: HD-MY-Z; experiment: cells; format: functional, cell-based, Homo sapiens; settings: Homo sapiens, HD-MY-Z;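 note: growth inhibition of HD-MY-Z cells, read out with a cell viability assay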
Description: SANGER: Inhibition of human HD-MY-Z cell growth in a cell viability assay.

Structure (SMILES)	IC50 [nM]
CN(NC(=O)CC(=O)NN(C)C(=S)c1ccccc1)C(=S)c1ccccc1 [ELESCLOMOL]	5.91

system: HH; experiment: cells; format: functional, cell-based, Homo sapiens; settings: Homo sapiens, HH
Description: SANGER: Inhibition of human HH cell growth in a cell viability assay.

Structure (SMILES)	IC50 [nM]
CN(NC(=O)CC(=O)NN(C)C(=S)c1ccccc1)C(=S)c1ccccc1 [ELESCLOMOL]	> 200

system: IA-LM; experiment: cells; format: functional, cell-based; settings: Homo sapiens;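 note: cell viability assay measuring growth inhibition of human IA-LM cells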
Description: SANGER: Inhibition of human IA-LM cell growth in a cell viability assay.

Structure (SMILES)	IC50 [nM]
CN(NC(=O)CC(=O)NN(C)C(=S)c1ccccc1)C(=S)c1ccccc1 [ELESCLOMOL]	84.4

system: IST-MES1; experiment: cells; format: functional, cell-based, Homo sapiens; settings: Homo sapiens, IST-MES1;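 note: growth inhibition of IST-MES1 cells, measured with a cell viability assay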
Description: SANGER: Inhibition of human IST-MES1 cell growth in a cell viability assay.

Structure (SMILES)	IC50 [nM]
CN(NC(=O)CC(=O)NN(C)C(=S)c1ccccc1)C(=S)c1ccccc1 [ELESCLOMOL]	54.1

system: IST-SL1; experiment: cells; format: functional, cell-based, Homo sapiens; settings: Homo sapiens, IST-SL1;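 note: growth inhibition of human IST-SL1 cells, read out with a cell viability assay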
Description: SANGER: Inhibition of human IST-SL1 cell growth in a cell viability assay.

Structure (SMILES)	IC50 [nM]
CN(NC(=O)CC(=O)NN(C)C(=S)c1ccccc1)C(=S)c1ccccc1 [ELESCLOMOL]	52.3

system: JAR; experiment: cells; format: functional, cell-based, Homo sapiens; settings: Homo sapiens, JAR;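 note: growth inhibition of human JAR cells determined with a cell viability assay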
Description: SANGER: Inhibition of human JAR cell growth in a cell viability assay.

Structure (SMILES)	IC50 [nM]
CN(NC(=O)CC(=O)NN(C)C(=S)c1ccccc1)C(=S)c1ccccc1 [ELESCLOMOL]	5.97

system: JVM-2; experiment: cells; format: functional, cell-based, Homo sapiens; settings: Homo sapiens, JVM-2;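 note: growth inhibition of JVM-2 cells determined by a cell viability assay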
Description: SANGER: Inhibition of human JVM-2 cell growth in a cell viability assay.

Structure (SMILES)	IC50 [nM]
CN(NC(=O)CC(=O)NN(C)C(=S)c1ccccc1)C(=S)c1ccccc1 [ELESCLOMOL]	> 200

system: KM-H2; experiment: cells; format: functional, cell-based, Homo sapiens; settings: Homo sapiens, KM-H2;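 note: growth inhibition of KM-H2 cells, read out by a cell viability assay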
Description: SANGER: Inhibition of human KM-H2 cell growth in a cell viability assay.

Structure (SMILES)	IC50 [nM]
CN(NC(=O)CC(=O)NN(C)C(=S)c1ccccc1)C(=S)c1ccccc1 [ELESCLOMOL]	> 200

system: KURAMOCHI; experiment: cells; format: functional, cell-based, Homo sapiens; settings: Homo sapiens, KURAMOCHI;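 note: growth inhibition of KURAMOCHI cells, read out with a cell viability assay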
Description: SANGER: Inhibition of human KURAMOCHI cell growth in a cell viability assay.

Structure (SMILES)	IC50 [nM]
CN(NC(=O)CC(=O)NN(C)C(=S)c1ccccc1)C(=S)c1ccccc1 [ELESCLOMOL]	> 200

system: L-363; experiment: cells; format: functional, cell-based, Homo sapiens; settings: Homo sapiens, L-363
Description: SANGER: Inhibition of human L-363 cell growth in a cell viability assay.

Structure (SMILES)	IC50 [nM]
CN(NC(=O)CC(=O)NN(C)C(=S)c1ccccc1)C(=S)c1ccccc1 [ELESCLOMOL]	12.3

system: LAMA-84; experiment: cells; format: functional, cell-based, Homo sapiens; settings: Homo sapiens, LAMA-84;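 note: growth inhibition of LAMA-84 cells, read out with a cell viability assay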
Description: SANGER: Inhibition of human LAMA-84 cell growth in a cell viability assay.

Structure (SMILES)	IC50 [nM]
CN(NC(=O)CC(=O)NN(C)C(=S)c1ccccc1)C(=S)c1ccccc1 [ELESCLOMOL]	52.7

system: LB2241-RCC; experiment: cells; format: functional, cell-based, Homo sapiens; settings: Homo sapiens, LB2241-RCC;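 note: cell viability assay measuring how strongly the cultured human renal carcinoma line is prevented from growing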
Description: SANGER: Inhibition of human LB2241-RCC cell growth in a cell viability assay.

Structure (SMILES)	IC50 [nM]
CN(NC(=O)CC(=O)NN(C)C(=S)c1ccccc1)C(=S)c1ccccc1 [ELESCLOMOL]	56.4

system: LOX IMVI; experiment: cells; format: functional, cell-based, Homo sapiens; settings: Homo sapiens, LOX IMVI
Description: SANGER: Inhibition of human LOXIMVI cell growth in a cell viability assay.

Structure (SMILES)	IC50 [nM]
CN(NC(=O)CC(=O)NN(C)C(=S)c1ccccc1)C(=S)c1ccccc1 [ELESCLOMOL]	171

system: LS-513; experiment: cells; format: functional, cell-based, Homo sapiens; settings: Homo sapiens, LS-513
Description: SANGER: Inhibition of human LS-513 cell growth in a cell viability assay.

Structure (SMILES)	IC50 [nM]
CN(NC(=O)CC(=O)NN(C)C(=S)c1ccccc1)C(=S)c1ccccc1 [ELESCLOMOL]	82

system: MHH-PREB-1; experiment: cells; format: functional, cell-based, Homo sapiens; settings: Homo sapiens, MHH-PREB-1;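 note: cell viability assay measuring inhibition of proliferation of human MHH-PREB-1 cells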
Description: SANGER: Inhibition of human MHH-PREB-1 cell growth in a cell viability assay.

Structure (SMILES)	IC50 [nM]
CN(NC(=O)CC(=O)NN(C)C(=S)c1ccccc1)C(=S)c1ccccc1 [ELESCLOMOL]	11.5

system: MV4-11; experiment: cells; format: functional, cell-based, Homo sapiens, MV-4-11; settings: Homo sapiens, MV4-11;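 note: cell viability readout measuring growth inhibition of human MV-4-11 cells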
Description: SANGER: Inhibition of human MV-4-11 cell growth in a cell viability assay.

Structure (SMILES)	IC50 [nM]
CN(NC(=O)CC(=O)NN(C)C(=S)c1ccccc1)C(=S)c1ccccc1 [ELESCLOMOL]	18

system: MZ7-mel; experiment: cells; format: functional, cell-based, Homo sapiens; settings: Homo sapiens, MZ7-mel;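 note: growth inhibition of human MZ7-mel cells, measured by a cell viability assay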
Description: SANGER: Inhibition of human MZ7-mel cell growth in a cell viability assay.

Structure (SMILES)	IC50 [nM]
CN(NC(=O)CC(=O)NN(C)C(=S)c1ccccc1)C(=S)c1ccccc1 [ELESCLOMOL]	12.7

system: Mo; experiment: cells; format: functional, cell-based, Homo sapiens; settings: Homo sapiens, Mo
Description: SANGER: Inhibition of human Mo-T cell growth in a cell viability assay.

Structure (SMILES)	IC50 [nM]
CN(NC(=O)CC(=O)NN(C)C(=S)c1ccccc1)C(=S)c1ccccc1 [ELESCLOMOL]	> 200

system: NCI-H1155; experiment: cells; format: functional, cell-based, Homo sapiens; settings: Homo sapiens, NCI-H1155;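 note: cell growth inhibition measured by a viability assay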
Description: SANGER: Inhibition of human NCI-H1155 cell growth in a cell viability assay.

Structure (SMILES)	IC50 [nM]
CN(NC(=O)CC(=O)NN(C)C(=S)c1ccccc1)C(=S)c1ccccc1 [ELESCLOMOL]	46.2

system: NCI-H1299; experiment: cells; format: functional, cell-based; settings: Homo sapiens;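 note: growth inhibition of human NCI-H1299 cells, read out by a cell viability assay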
Description: SANGER: Inhibition of human NCI-H1299 cell growth in a cell viability assay.

Structure (SMILES)	IC50 [nM]
CN(NC(=O)CC(=O)NN(C)C(=S)c1ccccc1)C(=S)c1ccccc1 [ELESCLOMOL]	18.5

system: NCI-H1650; experiment: cells; format: functional, cell-based, Homo sapiens; settings: Homo sapiens, NCI-H1650;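 note: growth inhibition of human NCI-H1650 cells measured by a cell viability assay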
Description: SANGER: Inhibition of human NCI-H1650 cell growth in a cell viability assay.

Structure (SMILES)	IC50 [nM]
CN(NC(=O)CC(=O)NN(C)C(=S)c1ccccc1)C(=S)c1ccccc1 [ELESCLOMOL]	30.4

system: NCI-H226; experiment: cells; format: functional, cell-based, Homo sapiens; settings: Homo sapiens, NCI-H226;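 note: cell viability read-out used to gauge growth inhibition of the cells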
Description: SANGER: Inhibition of human NCI-H226 cell growth in a cell viability assay.

Structure (SMILES)	IC50 [nM]
CN(NC(=O)CC(=O)NN(C)C(=S)c1ccccc1)C(=S)c1ccccc1 [ELESCLOMOL]	131

system: NCI-H23; experiment: cells; format: functional, cell-based, Homo sapiens; settings: Homo sapiens, NCI-H23;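 note: cell viability assay measuring growth inhibition of NCI-H23 cells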
Description: SANGER: Inhibition of human NCI-H23 cell growth in a cell viability assay.

Structure (SMILES)	IC50 [nM]
CN(NC(=O)CC(=O)NN(C)C(=S)c1ccccc1)C(=S)c1ccccc1 [ELESCLOMOL]	12.2

system: NCI-H720; experiment: cells; format: functional, cell-based, Homo sapiens; settings: Homo sapiens, NCI-H720;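 note: growth inhibition of human NCI-H720 cells determined by a cell viability assay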
Description: SANGER: Inhibition of human NCI-H720 cell growth in a cell viability assay.

Structure (SMILES)	IC50 [nM]
CN(NC(=O)CC(=O)NN(C)C(=S)c1ccccc1)C(=S)c1ccccc1 [ELESCLOMOL]	124

system: NCI-N87; experiment: cells; format: functional, cell-based; settings: Homo sapiens;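 note: growth inhibition of human NCI-N87 cells, read out with a cell viability assay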
Description: SANGER: Inhibition of human NCI-N87 cell growth in a cell viability assay.

Structure (SMILES)	IC50 [nM]
CN(NC(=O)CC(=O)NN(C)C(=S)c1ccccc1)C(=S)c1ccccc1 [ELESCLOMOL]	> 200

system: SNU-5; experiment: cells; format: functional, cell-based, Homo sapiens; settings: Homo sapiens, SNU-5;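 note: cell viability readout used to measure growth inhibition in human NCI-SNU-5 cells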
Description: SANGER: Inhibition of human NCI-SNU-5 cell growth in a cell viability assay.

Structure (SMILES)	IC50 [nM]
CN(NC(=O)CC(=O)NN(C)C(=S)c1ccccc1)C(=S)c1ccccc1 [ELESCLOMOL]	> 200

system: NH-12; experiment: cells; format: functional, cell-based, Homo sapiens; settings: Homo sapiens, NH-12;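 note: growth inhibition of NH-12 cells, read out with a cell viability assay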
Description: SANGER: Inhibition of human NH-12 cell growth in a cell viability assay.

Structure (SMILES)	IC50 [nM]
CN(NC(=O)CC(=O)NN(C)C(=S)c1ccccc1)C(=S)c1ccccc1 [ELESCLOMOL]	134

system: ONS-76; experiment: cells; format: functional, cell-based, Homo sapiens; settings: Homo sapiens, ONS-76;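 note: growth inhibition of human ONS-76 cells, read out with a cell viability assay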
Description: SANGER: Inhibition of human ONS-76 cell growth in a cell viability assay.

Structure (SMILES)	IC50 [nM]
CN(NC(=O)CC(=O)NN(C)C(=S)c1ccccc1)C(=S)c1ccccc1 [ELESCLOMOL]	10.3

system: OS-RC-2; experiment: cells; format: functional, cell-based, Homo sapiens; settings: Homo sapiens, OS-RC-2;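 note: growth inhibition of human OS-RC-2 cells, measured by a cell viability assay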
Description: SANGER: Inhibition of human OS-RC-2 cell growth in a cell viability assay.

Structure (SMILES)	IC50 [nM]
CN(NC(=O)CC(=O)NN(C)C(=S)c1ccccc1)C(=S)c1ccccc1 [ELESCLOMOL]	47.7

system: RPMI-8866; experiment: cells; format: functional, cell-based, Homo sapiens; settings: Homo sapiens, RPMI-8866
Description: SANGER: Inhibition of human RPMI-8866 cell growth in a cell viability assay.

Structure (SMILES)	IC50 [nM]
CN(NC(=O)CC(=O)NN(C)C(=S)c1ccccc1)C(=S)c1ccccc1 [ELESCLOMOL]	30

system: SBC-1; experiment: cells; format: functional, cell-based, Homo sapiens; settings: Homo sapiens, SBC-1;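 note: cell viability assay measuring growth inhibition of the SBC-1 cell line, IC50 being the concentration that halves growth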
Description: SANGER: Inhibition of human SBC-1 cell growth in a cell viability assay.

Structure (SMILES)	IC50 [nM]
CN(NC(=O)CC(=O)NN(C)C(=S)c1ccccc1)C(=S)c1ccccc1 [ELESCLOMOL]	35.1

system: SCC-15; experiment: cells; format: functional, cell-based, Homo sapiens; settings: Homo sapiens, SCC-15;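 note: growth inhibition of SCC-15 cells, read out with a cell viability assay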
Description: SANGER: Inhibition of human SCC-15 cell growth in a cell viability assay.

Structure (SMILES)	IC50 [nM]
CN(NC(=O)CC(=O)NN(C)C(=S)c1ccccc1)C(=S)c1ccccc1 [ELESCLOMOL]	25.6

system: SK-N-FI; experiment: cells; format: functional, cell-based, Homo sapiens; settings: Homo sapiens, SK-N-FI;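 note: cell viability assay measuring growth inhibition of human SK-N-FI cells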
Description: SANGER: Inhibition of human SK-N-FI cell growth in a cell viability assay.

Structure (SMILES)	IC50 [nM]
CN(NC(=O)CC(=O)NN(C)C(=S)c1ccccc1)C(=S)c1ccccc1 [ELESCLOMOL]	81.5

system: SK-PN-DW; experiment: cells; format: functional, cell-based, Homo sapiens; settings: Homo sapiens, SK-PN-DW;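 note: growth inhibition measured with a viability assay on these cells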
Description: SANGER: Inhibition of human SK-PN-DW cell growth in a cell viability assay.

Structure (SMILES)	IC50 [nM]
CN(NC(=O)CC(=O)NN(C)C(=S)c1ccccc1)C(=S)c1ccccc1 [ELESCLOMOL]	9.02

system: SK-UT-1; experiment: cells; format: functional, cell-based, Homo sapiens; settings: Homo sapiens, SK-UT-1;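 note: growth inhibition of SK-UT-1 cells, measured by a cell viability assay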
Description: SANGER: Inhibition of human SK-UT-1 cell growth in a cell viability assay.

Structure (SMILES)	IC50 [nM]
CN(NC(=O)CC(=O)NN(C)C(=S)c1ccccc1)C(=S)c1ccccc1 [ELESCLOMOL]	14.1

system: 697; experiment: cells; format: functional, cell-based, Homo sapiens; settings: Homo sapiens
Description: SANGER: Inhibition of human 697 cell growth in a cell viability assay.

Structure (SMILES)	IC50 [nM]
CN(NC(=O)CC(=O)NN(C)C(=S)c1ccccc1)C(=S)c1ccccc1 [ELESCLOMOL]	6.13

system: 8-MG-BA; experiment: cells; format: functional, cell-based, Homo sapiens; settings: Homo sapiens, 8-MG-BA;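 note: growth inhibition of 8-MG-BA cells, read out with a cell viability assay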
Description: SANGER: Inhibition of human 8-MG-BA cell growth in a cell viability assay.

Structure (SMILES)	IC50 [nM]
CN(NC(=O)CC(=O)NN(C)C(=S)c1ccccc1)C(=S)c1ccccc1 [ELESCLOMOL]	9.14

system: A498; experiment: cells; format: functional, cell-based, Homo sapiens; settings: Homo sapiens, A498;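 note: growth inhibition of human A498 cells, read out with a cell viability assay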
Description: SANGER: Inhibition of human A498 cell growth in a cell viability assay.

Structure (SMILES)	IC50 [nM]
CN(NC(=O)CC(=O)NN(C)C(=S)c1ccccc1)C(=S)c1ccccc1 [ELESCLOMOL]	46.5

system: ACN; experiment: cells; format: functional, cell-based, Homo sapiens; settings: Homo sapiens, ACN;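 note: growth inhibition of the human ACN cell line, read out via cell viability testing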
Description: SANGER: Inhibition of human ACN cell growth in a cell viability assay.

Structure (SMILES)	IC50 [nM]
CN(NC(=O)CC(=O)NN(C)C(=S)c1ccccc1)C(=S)c1ccccc1 [ELESCLOMOL]	11.7

system: BB30-HNC; experiment: cells; format: functional, cell-based, Homo sapiens; settings: Homo sapiens, BB30-HNC;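 note: growth inhibition of the cultured cell line, read out by a cell viability assay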
Description: SANGER: Inhibition of human BB30-HNC cell growth in a cell viability assay.

Structure (SMILES)	IC50 [nM]
CN(NC(=O)CC(=O)NN(C)C(=S)c1ccccc1)C(=S)c1ccccc1 [ELESCLOMOL]	35.3

system: C8166; experiment: cells; format: functional, cell-based, Homo sapiens; settings: Homo sapiens, C8166;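 note: growth inhibition of human C8166 cells measured by a cell viability assay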
Description: SANGER: Inhibition of human C8166 cell growth in a cell viability assay.

Structure (SMILES)	IC50 [nM]
CN(NC(=O)CC(=O)NN(C)C(=S)c1ccccc1)C(=S)c1ccccc1 [ELESCLOMOL]	> 200

system: no-10; experiment: cells; format: functional, cell-based, Homo sapiens; settings: Homo sapiens;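 note: growth inhibition of no-10 cells, read out with a cell viability assay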
Description: SANGER: Inhibition of human no-10 cell growth in a cell viability assay.

Structure (SMILES)	IC50 [nM]
CN(NC(=O)CC(=O)NN(C)C(=S)c1ccccc1)C(=S)c1ccccc1 [ELESCLOMOL]	> 200

system: CCRF-CEM; experiment: cells; format: functional, cell-based, Homo sapiens; settings: Homo sapiens, CCRF-CEM;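 note: inhibition of CCRF-CEM cell growth, measured by a cell viability assay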
Description: SANGER: Inhibition of human CCRF-CEM cell growth in a cell viability assay.

Structure (SMILES)	IC50 [nM]
CN(NC(=O)CC(=O)NN(C)C(=S)c1ccccc1)C(=S)c1ccccc1 [ELESCLOMOL]	> 200
